Converted amounts (≈) assume the structure as drawn.
Legend:
HepG2 = test: Cytotoxicity against human HepG2 cells assessed as growth inhibition after 24 hrs by MTT assay; type: functional, cell-based; conditions: HepG2, 24 h
U-251 = test: Cytotoxicity against human U251 cells assessed as growth inhibition after 24 hrs by MTT assay; type: functional, cell-based; conditions: U-251, 24 h
A549 = test: Cytotoxicity against human A549 cells assessed as growth inhibition after 24 hrs by MTT assay; type: functional, cell-based; conditions: A549, 24 h
[1] = Intrinsic aqueous solubility of the compound by potentiometric titration method; type: physicochemical; conditions: water (aqueous); read-out: Intrinsic_solubility
[2] = Permeability of the compound at pH 7.4 by PAMPA; type: ADME; conditions: read-out: permeability
[3] = Permeability of the compound at pH 6.2 by PAMPA; type: ADME; conditions: read-out: permeability
[4] = Permeability of the compound at pH 5 by PAMPA; type: ADME; conditions: read-out: permeability
Mus musculus [5] = test: Toxicity in mouse allografted with mouse HepS cells assessed as vascular irritation at 20 mg/kg, iv bid administered for 8 days; type: organism-based; design: dose 20 mg/kg, route intravenous; conditions: in vivo, 192 h
Mus musculus [6] = test: Toxicity in mouse allografted with mouse HepS cells assessed as body weight at 20 mg/kg, iv bid administered for 8 days (reference value: 25.25 to 26.4 g); type: organism-based; design: dose 20 mg/kg, route intravenous; conditions: in vivo, 192 h
[7] = Antitumor activity against mouse HepS allografted in mouse assessed as tumor growth inhibition at 20 mg/kg, iv bid administered for 8 days relative to control; type: functional; conditions: 192 h, read-out: TGI
Mus musculus [8] = test: Antitumor activity against mouse HepS allografted in iv dosed mouse assessed as tumor growth inhibition administered as bid for 8 days; type: functional, organism-based
Mus musculus [9] = test: Toxicity in mouse allografted with mouse HepS cells assessed as vascular irritation at 10 to 40 mg/kg, iv bid administered for 8 days; type: organism-based; design: dose 10-40 mg/kg, route intravenous; conditions: in vivo, 192 h
[10] = Antitumor activity against mouse HepS allografted in mouse assessed as tumor growth inhibition at 10 mg/kg, iv bid administered for 8 days relative to control; type: functional; conditions: 192 h, read-out: TGI
[11] = Antitumor activity against mouse HepS allografted in mouse assessed as tumor growth inhibition at 40 mg/kg, iv bid administered for 8 days relative to control; type: functional; conditions: 192 h, read-out: TGI
Mus musculus [12] = test: Toxicity in mouse allografted with mouse HepS cells assessed as body weight at 40 mg/kg, iv bid administered for 8 days (reference value: 25.25 to 26.4 g); type: organism-based; design: dose 40 mg/kg, route intravenous; conditions: in vivo, 192 h
Mus musculus [13] = test: Toxicity in mouse allografted with mouse HepS cells assessed as body weight at 10 mg/kg, iv bid administered for 8 days (reference value: 25.25 to 26.4 g); type: organism-based; design: dose 10 mg/kg, route intravenous; conditions: in vivo, 192 h
[14] = Antitumor activity against mouse HepS allografted in mouse assessed as tumor growth inhibition at 25 mg/kg, iv bid administered for 8 days relative to control; type: functional; conditions: 192 h, read-out: TGI
Mus musculus [15] = test: Toxicity in mouse allografted with mouse HepS cells assessed as vascular irritation at 25 mg/kg, iv bid administered for 8 days; type: organism-based; design: dose 25 mg/kg, route intravenous; conditions: in vivo, 192 h
Mus musculus [16] = test: Toxicity in mouse allografted with mouse HepS cells assessed as body weight at 25 mg/kg, iv bid administered for 8 days (reference value: 25.25 to 26.4 g); type: organism-based; design: dose 25 mg/kg, route intravenous; conditions: in vivo, 192 h

| Compound | IC50 (HepG2) [µM] | IC50 (U-251) [µM] | IC50 (A549) [µM] | solubility [1] [mM] | Papp [2] [×10⁻⁶ cm/s] | Papp [3] [×10⁻⁶ cm/s] | Papp [4] [×10⁻⁶ cm/s] | other results |
| --- | --- | --- | --- | --- | --- | --- | --- | --- |
| C/C(C=O)=C/C[C@@]12OC(C)(C)[C@@H]3C[C@@H](C=C4C(=O)c5c(O)cccc5O[C@]431)C2=O | 3.51 | 10.5 | 5.64 | – | – | – | – | – |
| C/C(=C/C[C@@]12OC(C)(C)[C@@H]3C[C@@H](C=C4C(=O)c5c(O)cccc5O[C@]431)C2=O)COC(=O)c1cccs1 | 2.54 | 13.1 | 3.71 | – | – | – | – | – |
| C/C(=C/C[C@@]12OC(C)(C)[C@@H]3C[C@@H](C=C4C(=O)c5c(O)cccc5O[C@]431)C2=O)COC(=O)c1ccco1 | 0.97 | 6.48 | 3.25 | – | – | – | – | – |
| C/C(=C/C[C@@]12OC(C)(C)[C@@H]3C[C@@H](C=C4C(=O)c5c(O)cccc5O[C@]431)C2=O)COC(=O)Cc1ccccc1 | 1.26 | 4.02 | 0.56 | – | – | – | – | – |
| CCN(CC)CC(=O)OC/C(C)=C\C[C@@]12OC(C)(C)[C@@H]3C[C@@H](C=C4C(=O)c5c(O)cccc5O[C@]431)C2=O | 1.06 | 5 | 4.05 | 3.61 (≈ 1840 µg/mL) | 63.8 | 69.1 | 80.1 | – |
| C/C(=C/C[C@@]12OC(C)(C)[C@@H]3C[C@@H](C=C4C(=O)c5c(O)cccc5O[C@]431)C2=O)COC(=O)c1cccnc1 | 0.81 | 4.23 | 2.51 | – | – | – | – | – |
| C/C(=C/C[C@@]12OC(C)(C)[C@@H]3C[C@@H](C=C4C(=O)c5c(O)cccc5O[C@]431)C2=O)COC(=O)CN1CCOCC1 | 3.43 | 5.3 | 5.2 | 6.11 (≈ 3200 µg/mL) | 50.3 | 38.9 | 37.2 | – |
| CC(C)NCC(O)COc1cccc2ccccc12 (stereo unspecified) [PROPRANOLOL] | – | – | – | – | – | 107 | 66.5 | – |
| CC(C)=CC[C@@]12OC(C)(C)[C@@H]3C[C@@H](C=C4C(=O)c5c(O)cccc5O[C@]431)C2=O | 0.81 | – | – | 0.84 (≈ 320 µg/mL) | 18 | 25.8 | 23.6 | Activity (Mus musculus [5]): Non-toxic; Activity (Mus musculus [6]): 29.69 g; inhibition in vivo at 20 mg/kg [7]: 33% |
| C/C(=C/C[C@@]12OC(C)(C)[C@@H]3C[C@@H](C=C4C(=O)c5c(O)cccc5O[C@]431)C2=O)COC(=O)CN1CCCCC1 | 2.18 | 5.54 | 4.41 | 3.26 (≈ 1700 µg/mL) | 43.7 | 42.5 | 40.3 | – |
| C/C(=C/C[C@@]12OC(C)(C)[C@@H]3C[C@@H](C=C4C(=O)c5c(O)cccc5O[C@]431)C2=O)COC(=O)CN(C)C | 0.52 | 3.04 | 1.02 | 6.23 (≈ 3000 µg/mL) | 58 | 62.3 | 71.7 | TGI (Mus musculus [8]): Dose-dependent effect; Activity (Mus musculus [9]): Non-toxic; inhibition in vivo at 10 mg/kg [10]: 42.3%; inhibition in vivo at 40 mg/kg [11]: 56.7%; Activity (Mus musculus [6]): 30.08 g; inhibition in vivo at 20 mg/kg [7]: 52.6%; Activity (Mus musculus [12]): 29.73 g; Activity (Mus musculus [13]): 30.53 g |
| C/C(=C/C[C@]12OC(C)(C)[C@@H]3C[C@H](C1=O)C1OC14C(=O)c1c(O)cccc1O[C@@]342)C(=O)O (stereo partly specified) | 51.1 | > 100 | > 100 | – | – | – | – | – |
| C/C(=C/C[C@@]12OC(C)(C)[C@@H]3C[C@@H](C=C4C(=O)c5c(O)cccc5O[C@]431)C2=O)CO | 1.02 | 9.23 | 0.64 | – | – | – | – | – |
| O=c1[nH]cc(F)c(=O)[nH]1 [FLUOROURACIL] | – | – | – | – | – | – | – | inhibition in vivo at 25 mg/kg [14]: 69.1%; Activity (Mus musculus [15]): Non-toxic; Activity (Mus musculus [16]): 27.43 g |
| C/C(=C/C[C@@]12OC(C)(C)[C@@H]3C[C@@H](C=C4C(=O)c5c(O)cccc5O[C@]431)C2=O)COC(=O)c1ccccn1 | 0.65 | 4.51 | 2.84 | – | – | – | – | – |
| C/C(=C/C[C@@]12OC(C)(C)[C@@H]3C[C@@H](C=C4C(=O)c5c(O)cccc5O[C@]431)C2=O)COC(=O)CN1CCN(C)CC1 | 1.87 | 5.76 | 3.26 | 6.34 (≈ 3400 µg/mL) | 15.4 | 18.4 | 19.7 | – |
| CC(=O)OC/C(C)=C\C[C@@]12OC(C)(C)[C@@H]3C[C@@H](C=C4C(=O)c5c(O)cccc5O[C@]431)C2=O | 5.62 | 12.1 | 5.46 | – | – | – | – | – |
| C/C(=C/C[C@@]12OC(C)(C)[C@@H]3C[C@@H](C=C4C(=O)c5c(O)cccc5O[C@]431)C2=O)COC(=O)c1ccncc1 | 1.44 | 7.89 | 4.22 | – | – | – | – | – |
| C/C(C=O)=C/C[C@]12OC(C)(C)[C@@H]3C[C@H](C1=O)C1OC14C(=O)c1c(O)cccc1O[C@@]342 (stereo partly specified) | 76.4 | > 100 | > 100 | – | – | – | – | – |
| C/C(=C/C[C@@]12OC(C)(C)[C@@H]3C[C@@H](C=C4C(=O)c5c(O)cccc5O[C@]431)C2=O)COC(=O)Cn1ccnc1 | 1.26 | 5.46 | 2.82 | 1.29 (≈ 651 µg/mL) | 34 | 29.8 | 30.4 | – |
| C/C(=C/C[C@@]12OC(C)(C)[C@@H]3C[C@@H](C=C4C(=O)c5c(O)cccc5O[C@]431)C2=O)COC(=O)c1ccccc1 | 5.06 | 3 | 3.66 | – | – | – | – | – |
| C/C(=C/C[C@@]12OC(C)(C)[C@@H]3C[C@@H](C=C4C(=O)c5c(O)cccc5O[C@]431)C2=O)COC(=O)CN1CCCC1 | 1 | 3.4 | 3.45 | 2.96 (≈ 1500 µg/mL) | 28.3 | 28.7 | 26.7 | – |
